# Test results taken from US9408885B2, “Combinations of therapeutic agents for treating melanoma” (VIB VZW, priority 2011, dated 2016).
# Assays:
# MM031 melanoma cells = conditions: MM031, 6.25-50 μM Cisplatin or 25-200 μM Melphalan, 24 hours
# Procedure: (§4) Cell viability was measured at 24 hours by CellTiter-Glo assay. Data represent the mean (±SD) of at least three biological replicates. […] Data represent the mean (±SD) of at least three biological replicates. […] Data represent the mean (±SD) of at least three biological replicates.
# MM011 melanoma cells = conditions: MM011, 6.25-50 μM Cisplatin or 25-200 μM Melphalan, 24 hours
# Procedure: as §4
# [1] = system: p53 pathway in MM cell lines overexpressing MDM4; assay: p53 tumor suppressor response (p53 and p21 protein levels) in short-term cultured melanoma cell lines; assay type: cell-based, human; conditions: all but one (MM87) of the cell lines overexpressing MDM4; nutlin-3 at high concentrations
# Procedure: Cells, adult tissue samples, or tumors were lysed in Giordano buffer (50 mM Tris-HCl (pH 7.4); 250 mM NaCl; 0.1% Triton X-100; 5 mM EDTA) containing phosphatase and protease inhibitors (Sigma). The adult tissue samples were sonicated three times 10 sec. […] The fractionated extracts were then transferred to a PVDF membrane (iBlot® Dry Blotting System). Membranes were blocked in Tris-buffered saline, 0.2% Tween-20 (TBST) containing 5% or 10% non-fat dry milk, and subsequently incubated with the appropriate primary antibody. Membranes were washed five times with TBST and incubated with either horseradish peroxidase-conjugated horse anti-mouse or goat anti-rabbit secondary antibody (Cell Signaling). After five washes with TBST, proteins were detected by enhanced chemiluminescense “ECL Western Blotting Detection Reagents” (Amersham Biosciences) or “SuperSignal West Femto Maximum Sensitivity Substrate” (Thermo Scientific) and visualized by exposure to X-ray film (Amersham Biosciences).
# [2] = system: MDM4 protein in A375 cells; assay: MDM4 protein expression level, A375; assay type: cell-based, human; conditions: A375, 5 μM, 24 hours
# Procedure: (§1) FIG. 4: AKT inhibitors destabilize the MDM4 protein levels in melanomas.
# (§2) In the present example we applied the Akt IV inhibitor on two different melanoma cell lines (i.e., the human amelanotic melanoma cell line A375 and the metastatic 451-lu human melanoma cell line, the latter also described in D. Herlyn et al. (1990), Cancer Research 50, 2296-2302).
# (§3) Cells, adult tissue samples, or tumors were lysed in Giordano buffer (50 mM Tris-HCl (pH 7.4); 250 mM NaCl; 0.1% Triton X-100; 5 mM EDTA) containing phosphatase and protease inhibitors (Sigma). The adult tissue samples were sonicated three times 10 sec. The protein concentration was determined by Bradford assay (OD 595 nm; Bio-Rad Protein Assay) and 40 μg of each sample were fractionated by SDS-PAGE (Invitrogen; NuPAGE® Novex® 4-12% Bis-Tris Gel). The fractionated extracts were then transferred to a PVDF membrane (iBlot® Dry Blotting System). Membranes were blocked in Tris-buffered saline, 0.2% Tween-20 (TBST) containing 5% or 10% non-fat dry milk, and subsequently incubated with the appropriate primary antibody. […] After five washes with TBST, proteins were detected by enhanced chemiluminescense “ECL Western Blotting Detection Reagents” (Amersham Biosciences) or “SuperSignal West Femto Maximum Sensitivity Substrate” (Thermo Scientific) and visualized by exposure to X-ray film (Amersham Biosciences). […]
# [3] = system: MDM4 protein in 451-lu cells; assay: MDM4 protein expression level, 451-lu; assay type: cell-based, human; conditions: 5 μM, 24 hours
# Procedure: as §1, §2, §3
structure (smiles),measurement,setting,value
N.N.[Cl][Pt][Cl] [cisplatin],"growth inhibition, alkylating agent alone",MM031 melanoma cells,variable growth inhibition effects
same,"growth inhibition, alkylating agent alone",MM011 melanoma cells,variable growth inhibition effects
COc1ccc(C2=N[C@@H](c3ccc(Cl)cc3)[C@@H](c3ccc(Cl)cc3)N2C(=O)N2CCNC(=O)C2)c(OC(C)C)c1 [nutlin-3],p53 protein levels and p21 expression,[1],increased p53 protein levels and induction of expression of p21
N[C@@H](Cc1ccc(N(CCCl)CCCl)cc1)C(=O)O [melphalan],"growth inhibition, alkylating agent alone",MM031 melanoma cells,variable growth inhibition effects
same,"growth inhibition, alkylating agent alone",MM011 melanoma cells,variable growth inhibition effects
CC[n+]1c(/C=C/N(C)c2ccccc2)n(-c2ccccc2)c2ccc(-c3nc4ccccc4s3)cc21.[I-] [Akt IV inhibitor],protein expression level of MDM4,[2],down-regulate
same,protein expression level of MDM4,[3],down-regulate
COc1cccc2c1C(=O)c1c(O)c3c(c(O)c1C2=O)C[C@@](O)(C(=O)CO)C[C@@H]3O[C@H]1C[C@H](N)[C@H](O)[C@H](C)O1 [doxorubicin],p53 protein levels and p21 expression,[1],increased p53 protein levels and induction of expression of p21
